Data as given in patent publication US4568490A, “Aminopropylaminobleomycin derivatives and process for preparation thereof” (Zaidan Hojin Biseibutsu Kagaku Kenkyu Kai, priority 1981, dated 1986).

How the values were obtained:
[1] = tested on: Mycobacterium smegmatis ATCC 607; experiment: Antimicrobial activity, agar plate-cylinder method; assay type: cell-based; details: Cu-free form; bleomycin A2 (Cu-free form) standard assumed 1,000 mcg/mg
Procedure: (§1) The activity was assayed against the above test microorganisms by the method of agar plate-cylinder, assuming the potency of bleomycin A2 (Cu-free form), used as standard, to be 1,000 mcg/mg.

Bacillus subtilis = experiment: Antimicrobial activity, agar plate-cylinder method; assay type: cell-based; details: Cu-free form; bleomycin A2 (Cu-free form) standard assumed 1,000 mcg/mg
Procedure: (1) Antimicrobial activity against Mycobacterium smegmatis ATCC 697 and Bacillus subtilis.
as §1

Hela S3 cells = experiment: Growth inhibitory activity against Hela S3 cells; assay type: cell-based; details: Cu-free form; Hela S3, 3 days incubation with compound
Procedure: The percentage growth inhibition was calculated using the equation: […] wherein A is the ultimate number of cells on the third day from the addition of a test sample, B is the ultimate number of cells in the control (without the addition of test sample), and C is the number of cells on the day of addition of the test sample.

ICR strain mice = experiment: Pulmonary toxicity (pulmonary fibrosis) in mice, intraperitoneal injection; assay type: in vivo; details: 5 mg/kg i.p. once a day for 10 days; for Grade of pulmonary fibrosis, % / Incidence of pulmonary fibrosis, % / Incidence: number of mice suffering from pulmonary fibrosis / Grade: total score of pulmonary fibrosis/total number of test animal: autopsy after 5 weeks; for Incidence: number of mice suffering from pulmonary fibrosis: affected/total mice; for Grade: total score of pulmonary fibrosis/total number of test animal: score 0-6 points; for Grade of pulmonary fibrosis, Ratio / Incidence of pulmonary fibrosis, Ratio: reference of the ratio not stated
Procedure: (3) Pulmonary toxicity (pulmonary fibrosis) in mice.
ICR strain mice (male; 15 weeks old; 9 mice per group) were used. Each mouse was administered with a daily dose of 5 mg/kg of the test sample by intraperitoneal injection, once a day, for 10 consecutive days. After completion of the predetermined administration, the mice were kept for 5 weeks under observation, then slaughtered, and autopsied to examine the incidence and grade of pulmonary fibrosis. The evaluation was made by comparing the number of administered mice suffering from pulmonary fibrosis and the grade of the disease.
(§2) In Tables 4A and 4B, the grade was numerically rated as follows:
(§3) 1 point: Accumulation of exudate in pulmonary alveoli and fibrosis-like change in alveolar septum.
(§4) 2 points: Fibrosis in several areas.
(§5) 4 points: Scattered fibrosis.
(§6) 6 points: Fibrosis in more than two-thirds of the total area.

ICR mice = experiment: Pulmonary toxicity (pulmonary fibrosis) in mice, intratracheal instillation; assay type: in vivo; details: 16 μg/50 μl/mouse intratracheally, sacrificed 4 weeks after instillation; for Grade: total score of pulmonary fibrosis/total number of samples: score 0-6 points
Procedure: Male 15 weeks old ICR mice were used. Sixteen μg/50 μl/mouse of each test sample was intratracheally instilled. The mice were sacrificed 4 weeks after instillation to examine the incidence and grade of pulmonary fibrosis. The evaluation was made by comparing the number of administered mice suffering from pulmonary fibrosis and the grade of the disease.
as §2, §3, §4, §5, §6

Structure (SMILES) | Antimicrobial potency of Cu--free compound, against Mycobacterium smegmatis ATCC 607 [1] | Antimicrobial potency of Cu--free compound, against Bacillus subtilis (Bacillus subtilis) | 50% growth inhibition concentration (ID50) of Cu--free compound against cultured Hela cell (Hela S3 cells) | Grade of pulmonary fibrosis, % (ICR strain mice) | Incidence of pulmonary fibrosis, % (ICR strain mice) | Incidence: number of mice suffering from pulmonary fibrosis (ICR strain mice) | Grade: total score of pulmonary fibrosis/total number of test animal (ICR strain mice) | Grade of pulmonary fibrosis, Ratio (ICR strain mice) | Incidence of pulmonary fibrosis, Ratio (ICR strain mice) | Grade of pulmonary fibrosis, % (ICR mice) | Incidence of pulmonary fibrosis, % (ICR mice) | Incidence: number of mice with pulmonary fibrosis/number of mice (ICR mice) | Grade: total score of pulmonary fibrosis/total number of samples (ICR mice)
COc1ccc(CNCCCN(C)CCCNC(=O)c2csc(-c3csc(CCNC(=O)C(NC(=O)C(C)C(O)C(C)NC(=O)C(NC(=O)c4nc(C(CC(N)=O)NCC(N)C(N)=O)nc(N)c4C)C(OC4OC(CO)C(O)C(O)C4OC4OC(CO)C(O)C(OC(N)=O)C4O)c4cnc[nH]4)C(C)O)n3)n2)c(OC)c1 (centres unmarked) [compound 13, 3-{N--Methyl-N--[3'-(o,p-dimethoxybenzylamino)propyl]amino}propylaminoBLM] | 5351 mcg potency per mg | 5312 mcg potency per mg | 1.30 µg/mL | 11% | 33% | 2/6 | 2/18 | 0.13 | 0.53 | 15% | 22% | 2/9 | 4/27
Cc1c(N)nc(C(CC(N)=O)NCC(N)C(N)=O)nc1C(=O)NC(C(=O)NC(C)C(O)C(C)C(=O)NC(C(=O)NCCc1nc(-c2nc(C(=O)NCCCN(C)CCCNC(C)c3ccc(Cl)cc3)cs2)cs1)C(C)O)C(OC1OC(CO)C(O)C(O)C1OC1OC(CO)C(O)C(OC(N)=O)C1O)c1cnc[nH]1 (centres unmarked) [compound 14, 3-{N--Methyl-N--[3'-(1"-p-chlorophenylethylamino)propyl]amino}propylaminoBLM] | 16959 mcg potency per mg | 5459 mcg potency per mg | 0.52 µg/mL | 11% | 22% | 2/9 | 3/27 | 0.13 | 0.35 | 24% | 57% | 4/7 | 5/21
Cc1c(N)nc(C(CC(N)=O)NCC(N)C(N)=O)nc1C(=O)NC(C(=O)NC(C)C(O)C(C)C(=O)NC(C(=O)NCCc1nc(-c2nc(C(=O)NCCCN(C)CCCNCc3ccc(C#N)cc3)cs2)cs1)C(C)O)C(OC1OC(CO)C(O)C(O)C1OC1OC(CO)C(O)C(OC(N)=O)C1O)c1cnc[nH]1 (centres unmarked) [compound 18, 3-{N--Methyl-N--[3'-(p-cyanobenzylamino)propyl]amino}propylaminoBLM] | 3163 mcg potency per mg | 4347 mcg potency per mg | 1.10 µg/mL | 0% | 0% | 0/9 | 0/27 | 0.00 | 0.00 | – | – | – | –
Cc1c(N)nc(C(CC(N)=O)NCC(N)C(N)=O)nc1C(=O)NC(C(=O)NC(C)C(O)C(C)C(=O)NC(C(=O)NCCc1nc(-c2nc(C(=O)NCCCN(C)CCCNCCc3ccc(Cl)cc3)cs2)cs1)C(C)O)C(OC1OC(CO)C(O)C(O)C1OC1OC(CO)C(O)C(OC(N)=O)C1O)c1cnc[nH]1 (centres unmarked) [compound 1, 3-{N--Methyl-N--[3'-(2"-p-chlorophenylethylamino)propyl]amino}propylaminoBLM] | 16800 mcg potency per mg | 13266 mcg potency per mg | 0.54 µg/mL | 11% | 22% | 2/9 | 3/27 | 0.13 | 0.35 | – | – | – | –
Cc1c(N)nc(C(CC(N)=O)NCC(N)C(N)=O)nc1C(=O)NC(C(=O)NC(C)C(O)C(C)C(=O)NC(C(=O)NCCc1nc(-c2nc(C(=O)NCCCN(C)CCCNCC3CCCCCCCCCCCC3)cs2)cs1)C(C)O)C(OC1OC(CO)C(O)C(O)C1OC1OC(CO)C(O)C(OC(N)=O)C1O)c1cnc[nH]1 (centres unmarked) [compound 47, 3-{N--Methyl-N--[3'-(cyclotridecanylmethylamino)propyl]amino}propylaminoBLM] | 3915 mcg potency per mg | 1760 mcg potency per mg | 0.18 µg/mL | 0% | 0% | 0/9 | 0/27 | 0.00 | 0.00 | – | – | – | –
Cc1c(N)nc(C(CC(N)=O)NCC(N)C(N)=O)nc1C(=O)NC(C(=O)NC(C)C(O)C(C)C(=O)NC(C(=O)NCCc1nc(-c2nc(C(=O)NCCCN(C)CCCN(Cc3ccc(OCc4ccc(Cl)c(Cl)c4)c(OCc4ccc(Cl)c(Cl)c4)c3)Cc3ccc(OCc4ccc(Cl)c(Cl)c4)c(OCc4ccc(Cl)c(Cl)c4)c3)cs2)cs1)C(C)O)C(OC1OC(CO)C(O)C(O)C1OC1OC(CO)C(O)C(OC(N)=O)C1O)c1cnc[nH]1 (centres unmarked) [compound 49, 3-{N--Methyl-N--[3'(bis(3",4"-di(m,p-dichlorobenzyloxy)benzyl)amino)propyl]amino}propylaminoBLM] | 23 mcg potency per mg | 8 mcg potency per mg | 0.063 µg/mL | 0% | 0% | 0/9 | 0/27 | 0.00 | 0.00 | – | – | – | –
Cc1c(N)nc(C(CC(N)=O)NCC(N)C(N)=O)nc1C(=O)NC(C(=O)NC(C)C(O)C(C)C(=O)NC(C(=O)NCCc1nc(-c2nc(C(=O)NCCCN(C)CCCN(Cc3ccc(OCC4CCCCCCC4)cc3)Cc3ccc(OCC4CCCCCCC4)cc3)cs2)cs1)C(C)O)C(OC1OC(CO)C(O)C(O)C1OC1OC(CO)C(O)C(OC(N)=O)C1O)c1cnc[nH]1 (centres unmarked) [compound 52, 3-{N--Methyl-N--[3'-(bis(p-cyclooctylmethyloxybenzyl)amino)propyl)amino}propylaminoBLM] | 268 mcg potency per mg | 49 mcg potency per mg | 0.13 µg/mL | 0% | 0% | 0/9 | 0/27 | 0.00 | 0.00 | – | – | – | –
Cc1c(N)nc(C(CC(N)=O)NCC(N)C(N)=O)nc1C(=O)NC(C(=O)NC(C)C(O)C(C)C(=O)NC(C(=O)NCCc1nc(-c2nc(C(=O)NCCCN(C)CCCN(Cc3cc(OCc4ccccc4)c(OCc4ccccc4)c(OCc4ccccc4)c3)Cc3cc(OCc4ccccc4)c(OCc4ccccc4)c(OCc4ccccc4)c3)cs2)cs1)C(C)O)C(OC1OC(CO)C(O)C(O)C1OC1OC(CO)C(O)C(OC(N)=O)C1O)c1cnc[nH]1 (centres unmarked) [compound 53, 3-{N--Methyl-N--[3'-(bis(3",4",5"-tribenzyloxybenzyl)amino)propyl]amino}propylaminoBLM] | 11 mcg potency per mg | 26 mcg potency per mg | 0.062 µg/mL | 0% | 0% | 0/9 | 0/27 | 0.00 | 0.00 | – | – | – | –
